# In patent US9296691B2, “Inhibitors of p75 receptor and their uses” (Horacio Uri Saragovi, priority 2010, dated 2016):
# Columns and labels:
# TrkA-Fc = biological target: T1, TrkA-Fc (Homo sapiens, UniProt P04629); assay: Competitive ELISA, TrkA-Fc binding to immobilized NGF (selectivity control)
# T1 construct: purchased R&D
# Experimental: The effect of compounds I-B and LM-24 on the binding between NGF and p75 was tested in competitive ELISA assays, where the antagonists prevent soluble p75 from binding to immobilized NGF. The selectivity of antagonism was evaluated by lack of effect upon NGF-TrkA or lack of effect between NGF and anti-NGF monoclonal antibody (mAb) NGF30 interactions (FIG. 1A).
# Competitive ELISAs were performed as described (Saragovi et al., 1998). The procedure immobilized 50 ng/well NGF, or pro-NGF (Alomone Labs, Israel) onto polystyrene 96-well microtest plates, with washing and blocking with binding buffer (BB; phosphate buffered saline containing 0.5% bovine serum albumin). The following primary reagents in BB were added: recombinant chimeric p75-Fc or recombinant chimeric TrkA-Fc (R&D), or anti-NGF mAb NGF30 (Saragovi et al., 1998); each at 50 nM. The competitors I-B and the other test compounds (or control LM-24) were added at the indicated concentrations, and the plates were incubated for 45 minutes. After washing 3× in BB, HRP-conjugated secondary reagents (Sigma) were added for 30 min (goat anti-human Fc for p75-Fc and for TrkA-Fc; and goat anti-rat Ab for NGF30 mAb), and then wells were washed 3× in BB and 1× in PBS. Peroxidase activity was determined colorimetrically using the substrate TMB One Solution (Promega). The reaction was stopped with 0.5 N H2SO4 and the plates were read at 450 nm (Benchmark Plus, Bio-Rad). Assays were repeated n>4 times, with replicates of 4 wells each assay. […] Wells with no NGF immobilized but with all other reagents added were treated as background (<15% of maximal signals) and standardized to 0% binding.
# [1] = test system: NGI (NFL-GCL-IPL) retinal layers; assay: ON axotomy model, retinal NGI thickness by FD-OCT; format: in vivo; conditions: rat ON axotomy, 3 μg intravitreal immediately after axotomy, days 11 and 14, versus untreated axotomy
# Experimental: Antagonists of p75NTR prevented loss of retinal structure after ON axotomy. The relative in vivo efficacy for I-B and LM-24 was tested using the ON axotomy model. A quantitative non-invasive structural endpoint, FD-OCT, was performed in the same animal over time to measure the integrity of the neuronal layers. We quantified the axons and fibers of the RGCs that contribute to the thickness of the Nerve Fiber Layer (NFL), the Ganglion Cell Layer (GCL), and the Inner Plexiform Layer (IPL), herein termed NGI. Maintenance of NGI structure correlates with RGC health (Bai et al., 2010a).
# Wistar rats (female, 250-300 g; Charles River) were kept in a 12 hours dark-light cycle with food and water ad libitum. All animal manipulations were performed between 9 AM and 12 AM. […]
# FD-OCT is a non-invasive method that allows time-kinetic studies in the same animal. […] In each B-scan the thickness of the NFL-GCL-IPL (NGI) was measured at four adjacent points at a distance 1.5 mm from the ON head. […]
# For studies in the glaucoma animal model the injections were performed at days 14 and 21 after cauterization. […] Thus, in this paradigm there is pre-existing damage for 14 days before treatment (measured at ˜8% RGC death (Shi et al., 2007; Shi et al., 2008)); and the treatments require long-lived efficacy in the constant presence of retinal stress due to high IOP. […]
# TNF-α = assay: Glaucoma model, retinal TNF-α by western blot; format: in vivo, rat; conditions: intravitreal injection at glaucoma day 14, measured 3 and 5 days later
# Experimental: (§1) After 14-days of glaucoma eyes were injected intravitreally with p75NTR antagonists, and the levels of TNF-α and α2M were measured three days later (e.g. day 17 of glaucoma) and five days later (e.g. day 19 of glaucoma) (FIG. 3A).
# (§2) Both retinas of each animal were detergent solubilized, and studied in independent gels standardized to loading control. The ratio of the glaucoma eye ±treatment versus the normal contralateral eye was calculated, and results were averaged ±sem, n=3 animals per group. In glaucoma, all drug treatments were done at day 14 of hypertension. In one group the retinas were harvested at day 17 of glaucoma (3 days after intraocular injection) and in the other group the retinas were harvested at day 19 of glaucoma (5 days after intraocular injection). Normal eyes treated with NGF-A were collected in the indicated days. After SDS-PAGE and western transfer, membranes were immunoblotted with rabbit polyclonal antibodies against TNF-α (Preprotech) or α2M (Santa Cruz) at a 1:3000 dilution. Goat anti-rabbit secondary antibodies conjugated to horseradish peroxidase (Sigma) were used at a 1:10,000 dilution. Loading was controlled with antibodies to β-actin (Sigma). For digital quantification, membranes were scanned and analyzed using ImageJ software.
# α2M = assay: Glaucoma model, retinal α2M by western blot; format: in vivo, rat; conditions: intravitreal injection at glaucoma day 14, measured 3 and 5 days later
# Experimental: as §1, §2
# T1 sequence (P04629 33-423 limits assumed): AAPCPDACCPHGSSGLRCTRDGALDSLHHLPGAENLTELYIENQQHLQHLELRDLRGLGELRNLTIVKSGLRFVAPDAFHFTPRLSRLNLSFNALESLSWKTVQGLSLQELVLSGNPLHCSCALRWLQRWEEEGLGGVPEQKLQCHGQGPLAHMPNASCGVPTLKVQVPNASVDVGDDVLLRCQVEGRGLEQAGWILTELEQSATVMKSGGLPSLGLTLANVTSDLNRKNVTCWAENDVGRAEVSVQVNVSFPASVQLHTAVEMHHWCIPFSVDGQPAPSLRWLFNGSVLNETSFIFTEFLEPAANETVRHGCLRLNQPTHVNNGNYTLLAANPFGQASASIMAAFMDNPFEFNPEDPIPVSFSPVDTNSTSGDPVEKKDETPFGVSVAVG
smiles,measurement,setting,value
"CC(C)NC(=O)N(C(=O)Cn1cnc2c1c(=O)n(C)c(=O)n2C)C(C)C [I-B, 1,3-Diisopropyl-1-[2-(1,3-dimethyl-2,6-dioxo-1,2,3,6-tetrahydro-purin-7-yl)-acetyl]-urea]",TrkA-Fc binding AVERAGE,"TrkA-Fc; binding to immobilized NGF, no cpd = 100%, TrkA-Fc 50 nM, as described for FIG. 1A",107%
same,effect on binding of TrkA to NGF,"TrkA-Fc; competitive ELISA, FIG. 1A, compound at 30 μM",did not interfere
same,preservation of NGI thickness (FD-OCT),[1],significant preservation of the NGI thickness
same,"TNF-α level in glaucomatous retina, fold-change versus normal retina",TNF-α,time-dependent inhibition
same,"α2M level in glaucomatous retina, fold-change versus normal retina",α2M,time-dependent inhibition
